This passage reports T/C results from PubChem BioAssay AID184 (DTP/NCI, 2004).

This experiment relates to BALB/cJ mice, ADJ-PC-6 ip tumor, median survival T/C. As to the kind of experiment: NCI In Vivo Anticancer Drug Screen. Data for tumor model ADJ-PC-6 (intraperitoneal) in BALB/cJ mice. Conditions: endpoint: median survival time, higher = longer survival. On the procedure: The antitumor activity of compounds was measured in mice bearing transplantable tumors. Survival or tumor size were measured and the results are expressed as the measurement made in the treated group (T) divided by the measurement made in the vehicle treated control group (C). The tumor model used in this assay is ADJ-PC-6 (intraperitoneal) in BALB/cJ mice

[1] abbreviates: dose: 0.5 mg/kg/injection, schedule: Q04DX003 (ip), vehicle: saline.
Setting [2] is: dose: 1.0 mg/kg/injection, schedule: Q04DX003 (ip), vehicle: saline.
The mark [3] stands for this setting: dose: 2.0 mg/kg/injection, schedule: Q04DX003 (ip), vehicle: saline.
[4] abbreviates: dose: 4.0 mg/kg/injection, schedule: Q04DX003 (ip), vehicle: saline.
The mark [5] stands for this setting: dose: 0.25 mg/kg/injection, schedule: Q04DX003 (ip), vehicle: saline.

Where “and” joins values, the source holds several entries; their conditions need not be identical. Equal values may be shown once. Inconclusive results and toxic doses are left out.

`CC(=O)O[C@H]1C(=O)[C@@]2(C)[C@H]([C@H](OC(=O)c3ccccc3)[C@]3(O)C[C@H](OC(=O)[C@H](O)[C@@H](NC(=O)c4ccccc4)c4ccccc4)C(C)=C1C3(C)C)[C@]1(OC(C)=O)CO[C@@H]1C[C@@H]2O`: the T/C is, setting by setting: (dose: 0.75 mg/kg/injection, schedule: Q01DX009 (ip), vehicle: Klucel (hydroxypropylcellulose) (HPC)) 102 % of control; (dose: 1.56 mg/kg/injection, schedule: Q01DX009 (ip), vehicle: Klucel (hydroxypropylcellulose) (HPC)) 118 % of control; (dose: 3.0 mg/kg/injection, schedule: Q01DX009 (ip), vehicle: Klucel (hydroxypropylcellulose) (HPC)) 112 % of control; (dose: 3.12 mg/kg/injection, schedule: Q01DX009 (ip), vehicle: Klucel (hydroxypropylcellulose) (HPC)) 112 % of control; (dose: 6.0 mg/kg/injection, schedule: Q01DX009 (ip), vehicle: Klucel (hydroxypropylcellulose) (HPC)) 121 % of control; (dose: 12.0 mg/kg/injection, schedule: Q01DX009 (ip), vehicle: Klucel (hydroxypropylcellulose) (HPC)) 124 % of control.

Turning to `CN(C)CNC(=O)c1ccccc1`, the T/C is, setting by setting: (dose: 20.0 mg/kg/injection, schedule: Q01DX009 (ip), vehicle: water) 102 % of control; (dose: 40.0 mg/kg/injection, schedule: Q01DX009 (ip), vehicle: water) 102 % of control; (dose: 80.0 mg/kg/injection, schedule: Q01DX009 (ip), vehicle: water) 115 % of control; (dose: 160.0 mg/kg/injection, schedule: Q01DX009 (ip), vehicle: water) 107 % of control.

Turning to `CC1OC(=O)C(C(C)C)NC(=O)C(C(C)C)OC(=O)C(C(C)C)NC(=O)C(C)OC(=O)C(C(C)C)NC(=O)C(C(C)C)OC(=O)C(C(C)C)NC(=O)C(C)OC(=O)C(C(C)C)NC(=O)C(C(C)C)OC(=O)C(C(C)C)NC1=O` (configuration not stated), the T/C reads like this: (dose: 0.75 mg/kg/injection, schedule: Q04DX003 (ip), vehicle: Klucel (hydroxypropylcellulose) (HPC)) 87 % of control; (dose: 1.5 mg/kg/injection, schedule: Q04DX003 (ip), vehicle: Klucel (hydroxypropylcellulose) (HPC)) 102 % of control; (dose: 2.0 mg/kg/injection, schedule: Q01DX009 (ip), vehicle: Klucel (hydroxypropylcellulose) (HPC)) 100 % of control; (dose: 4.0 mg/kg/injection, schedule: Q01DX009 (ip), vehicle: Klucel (hydroxypropylcellulose) (HPC)) 104 % of control; (dose: 8.0 mg/kg/injection, schedule: Q01DX009 (ip), vehicle: Klucel (hydroxypropylcellulose) (HPC)) 185 % of control.

For the compound `O=C1c2c(O)ccc(O)c2C(=O)c2c(NCCNCCO)ccc(NCCNCCO)c21`, the T/C (dose: 0.38 mg/kg/injection, schedule: Q04DX003 (ip), vehicle: saline) was 155 % of control and 267 % of control; the T/C (dose: 0.38 mg/kg/injection, schedule: Q04DX003 (iv), vehicle: saline) was 89 % of control; the T/C under setting [1] was 188 % of control; the T/C (dose: 0.5 mg/kg/injection, schedule: Q04DX003 (ip), vehicle: water) is 186 % of control; the T/C (dose: 0.75 mg/kg/injection, schedule: Q04DX003 (ip), vehicle: saline) is 179 % of control and 267 % of control; the T/C under setting [2] was 207 % of control. The T/C is 195 % of control (dose: 1.0 mg/kg/injection, schedule: Q04DX003 (ip), vehicle: water); 194 % of control and 267 % of control (dose: 1.5 mg/kg/injection, schedule: Q04DX003 (ip), vehicle: saline); 153 % of control and 217 % of control (dose: 1.5 mg/kg/injection, schedule: Q04DX003 (iv), vehicle: saline); 342 % of control under setting [3]; 235 % of control (dose: 2.0 mg/kg/injection, schedule: Q04DX003 (ip), vehicle: water); 194 % of control and 267 % of control (dose: 3.0 mg/kg/injection, schedule: Q04DX003 (ip), vehicle: saline). The T/C runs as follows: (dose: 3.0 mg/kg/injection, schedule: Q04DX003 (iv), vehicle: saline) 155 % of control and 232 % of control; under setting [4], 160 % of control; (dose: 6.0 mg/kg/injection, schedule: Q04DX003 (iv), vehicle: saline) 179 % of control and 267 % of control.

Take `N[C@@H](Cc1ccc(N(CCCl)CCCl)cc1)C(=O)O`: the T/C under setting [3] is 177 % of control; the T/C (dose: 2.5 mg/kg/injection, schedule: Q04DX003 (ip), vehicle: saline) was 203 % of control; the T/C under setting [4] is 236 % of control; the T/C (dose: 5.0 mg/kg/injection, schedule: Q04DX003 (ip), vehicle: saline) was 240 % of control; the T/C (dose: 8.0 mg/kg/injection, schedule: Q04DX003 (ip), vehicle: saline) is 230 % of control; the T/C (dose: 10.0 mg/kg/injection, schedule: Q04DX003 (ip), vehicle: saline) is 335 % of control. Also, where the note is “dose: 16.0 mg/kg/injection, schedule: Q04DX003 (ip), vehicle: saline”, the T/C is 307 % of control.

Regarding `COc1cccc2c1C(=O)c1c(O)c3c(c(O)c1C2=O)C[C@@](O)(C(C)=O)C[C@@H]3OC1CC(N(Cc2ccccc2)Cc2ccccc2)C(O)C(C)O1` (some centres not stated), the T/C by setting is: (dose: 5.0 mg/kg/injection, schedule: Q04DX003 (ip), vehicle: saline with Tween-80) 96 % of control; (dose: 10.0 mg/kg/injection, schedule: Q04DX003 (ip), vehicle: saline with Tween-80) 109 % of control; (dose: 20.0 mg/kg/injection, schedule: Q04DX003 (ip), vehicle: saline with Tween-80) 177 % of control.

With `N[C@H](C(=O)O)[C@@H]1CC(Cl)=NO1`, the T/C (dose: 1.0 mg/kg/injection, schedule: Q01DX009 (ip), vehicle: saline) is 121 % of control.

With `COc1cc(NS(C)(=O)=O)ccc1Nc1c2ccccc2nc2ccccc12`, the T/C is 161 % of control (dose: 5.0 mg/kg/injection, schedule: Q04DX003 (ip), vehicle: other) and 205 % of control (dose: 10.0 mg/kg/injection, schedule: Q04DX003 (ip), vehicle: other).

As to `CO[C@H](C(=O)[C@@H](O)[C@@H](C)O)[C@@H]1Cc2cc3cc(OC4CC(OC5CC(O)C(O)C(C)O5)C(O)C(C)O4)c(C)c(O)c3c(O)c2C(=O)[C@H]1OC1CC(OC2CC(OC3CC(C)(O)C(O)C(C)O3)C(O)C(C)O2)C(O)C(C)O1` (some centres not stated), the T/C reads like this: (dose: 0.13 mg/kg/injection, schedule: Q04DX003 (ip), vehicle: clinical formulation) 104 % of control; (dose: 0.25 mg/kg/injection, schedule: Q04DX003 (ip), vehicle: clinical formulation) 108 % of control; (dose: 125.0 micrograms/kg/injection, schedule: Q04DX003 (ip), vehicle: saline) 100 % of control.

For `NC(=O)c1cn(C2OC(CO)C(O)C2O)c2ncnc(N)c12` (configuration not stated), the T/C is, setting by setting: (dose: 0.4 mg/kg/injection, schedule: Q04DX003 (ip), vehicle: saline with Tween-80) 107 % of control; (dose: 0.8 mg/kg/injection, schedule: Q04DX003 (ip), vehicle: saline with Tween-80) 173 % of control; (dose: 6.0 mg/kg/injection, schedule: Q04DX003 (ip), vehicle: saline with Tween-80) 182 % of control.

For the compound `CN(C)c1nc(N(C)C)nc(N(C)C)n1`, the T/C (dose: 20.0 mg/kg/injection, schedule: Q01DX009 (ip), vehicle: saline with Tween-80) is 102 % of control; the T/C (dose: 40.0 mg/kg/injection, schedule: Q01DX009 (ip), vehicle: Klucel (hydroxypropylcellulose) (HPC)) is 96 % of control; the T/C (dose: 40.0 mg/kg/injection, schedule: Q01DX009 (ip), vehicle: saline with Tween-80) is 100 % of control.

Consider `CN(Cc1cnc2nc(N)nc(N)c2n1)c1ccc(C(=O)N[C@@H](CCC(=O)O)C(=O)O)cc1`, for which the T/C is 97 % of control (dose: 1.25 mg/kg/injection, schedule: Q04DX003 (ip), vehicle: sodium bicarbonate); 110 % of control (dose: 2.5 mg/kg/injection, schedule: Q04DX003 (ip), vehicle: sodium bicarbonate); 104 % of control and 111 % of control (dose: 5.0 mg/kg/injection, schedule: Q04DX003 (ip), vehicle: sodium bicarbonate); 124 % of control (dose: 10.0 mg/kg/injection, schedule: Q04DX003 (ip), vehicle: sodium bicarbonate); 93 % of control and 124 % of control (dose: 20.0 mg/kg/injection, schedule: Q04DX003 (ip), vehicle: sodium bicarbonate); 156 % of control (dose: 40.0 mg/kg/injection, schedule: Q04DX003 (ip), vehicle: sodium bicarbonate).

With `COC(=O)C[C@](O)(CCCC(C)(C)O)C(=O)O[C@@H]1C(OC)=C[C@]23CCCN2CCc2cc4c(cc2[C@H]13)OCO4`, the T/C under setting [5] is 104 % of control; the T/C under setting [1] was 93 % of control; the T/C under setting [2] is 88 % of control; the T/C under setting [3] was 104 % of control; the T/C under setting [4] is 102 % of control.

With `CCC1(O)CC2CN(CCc3c([nH]c4ccccc34)C(C(=O)OC)(c3cc4c(cc3OC)N(C)C3C(O)(C(N)=O)C(O)C5(CC)C=CCN6CCC43C65)C2)C1` (configuration not stated) (tested in a mixture with another compound), the T/C reads like this: under setting [5], 92 % of control and 100 % of control; under setting [1], 106 % of control; under setting [2], 102 % of control; under setting [3], 115 % of control and 235 % of control.
